From patent US6355799B1, “Substituted benzene compounds, process for their preparation, and herbicidal and defoliant compositions containing them” (ISK Americas Incorporated, priority 1997, dated 2002)

How the values were obtained:
Format in all cases: in vivo
[1] = test system: redroot pigweed (Amaranthus retroflexus, AMARE); test: Pre-emerge test, greenhouse herbicide activity screening; details: pre-emerge, 14 days after application, scale 0-100
Outline: (§1)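 Sandy loam pots; pre-emerge: sown 1 d pre-spray, surface-watered after, then bottom-watered. Post-emerge: sown 8–21 d before, 2–3 leaf stage, + 0.25% v/v NIS, bottom-watered. Acetone, 187 l/ha track spray, 15–1000 g ai/ha. 0–100 injury score, day 14.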

[2] = test system: barnyardgrass (Echinochloa crus-galli, ECHCG); test: as above; details: pre-emerge, 14 days after application, scale 0-100
Outline: as §1

[3] = test system: green foxtail (Setaria viridis, SETVI); test: as above; details: pre-emerge, 14 days after application, scale 0-100
Outline: as §1

[4] = test system: ivyleaf morningglory (Ipomoea hederacea, IPOHE); test: as above; details: pre-emerge, 14 days after application, scale 0-100
Outline: as §1

[5] = test system: johnsongrass (Sorghum halepense, SORHA); test: as above; details: pre-emerge, 14 days after application, scale 0-100
Outline: as §1

[6] = test system: lambsquarters (Chenopodium album, CHEAL); test: as above; details: pre-emerge, 14 days after application, scale 0-100
Outline: as §1

[7] = test system: large crabgrass (Digitaria sanguinalis, DIGSA); test: as above; details: pre-emerge, 14 days after application, scale 0-100
Outline: as §1

[8] = test system: sicklepod (Cassia obtusifolia, CASOB); test: as above; details: pre-emerge, 14 days after application, scale 0-100
Outline: as §1

[9] = test system: velvetleaf (Abutilon theophrasti, ABUTH); test: as above; details: pre-emerge, 14 days after application, scale 0-100
Outline: as §1

[10] = test system: field corn (Zea mays L., var. Dekalb 535, CORN); test: Pre-emerge test, crop safety; details: pre-emerge, 14 days after application, scale 0-100
Outline: (§2)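 Applied at 15–1000 g ai/ha from acetone in 187 l/ha spray volume. Post-emergence applications included 0.25% v/v non-ionic surfactant and reached plants sown 8–21 days before. Pre-emergence applications were incorporated by surface watering. Efficacy or crop damage was rated on a 0–100 scale after 14 days.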

[11] = test system: upland rice (Oryza sp., var. Tebonnet, RICE); test: Pre-emerge test, crop safety; details: pre-emerge, 14 days after application, scale 0-100
Outline: as §2

[12] = test system: barnyardgrass (Echinochloa crus-galli, ECHCG); test: Post-emerge test, greenhouse herbicide activity screening; details: post-emerge, 14 days after application, rating scale 0-100
Outline: (§3)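 Compounds in acetone were track-sprayed at 15-1000 g ai/ha (187 l/ha) on sandy loam pots: pre-emerge one day after seeding, post-emerge at 2-3 leaf stage with 0.25% v/v non-ionic surfactant. Phytotoxicity was rated 14 days later on a 0 (no damage) to 100 (complete death) scale.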

[13] = test system: green foxtail (Setaria viridis, SETVI); test: as above; details: post-emerge, 14 days after application, rating scale 0-100
Outline: as §3

[14] = test system: ivyleaf morningglory (Ipomoea hederacea, IPOHE); test: as above; details: post-emerge, 14 days after application, rating scale 0-100
Outline: as §3

[15] = test system: johnsongrass (Sorghum halepense, SORHA); test: as above; details: post-emerge, 14 days after application, rating scale 0-100
Outline: as §3

[16] = test system: lambsquarters (Chenopodium album, CHEAL); test: as above; details: post-emerge, 14 days after application, rating scale 0-100
Outline: as §3

[17] = test system: large crabgrass (Digitaria sanguinalis, DIGSA); test: as above; details: post-emerge, 14 days after application, rating scale 0-100
Outline: as §3

[18] = test system: redroot pigweed (Amaranthus retroflexus, AMARE); test: as above; details: post-emerge, 14 days after application, rating scale 0-100
Outline: as §3

[19] = test system: sicklepod (Cassia obtusifolia, CASOB); test: as above; details: post-emerge, 14 days after application, rating scale 0-100
Outline: as §3

[20] = test system: velvetleaf (Abutilon theophrasti, ABUTH); test: as above; details: post-emerge, 14 days after application, rating scale 0-100
Outline: as §3

[21] = test system: field corn (Zea mays L., var. Dekalb 535, CORN); test: Post-emerge test, crop safety; details: post-emerge, 14 days after application, rating scale 0-100
Outline: as §1

[22] = test system: upland rice (Oryza sp., var. Tebonnet, RICE); test: Post-emerge test, crop safety; details: post-emerge, 14 days after application, rating scale 0-100
Outline: as §1

COc1cc2ccccc2cc1C(=O)Nc1c(OC)c(Cl)cc(F)c1-n1c(=O)cc(C(F)(F)F)n(C)c1=O [2-152]
phytotoxicity rating AMARE ([1]; 63 g ai/ha): 100
phytotoxicity rating AMARE ([1]; 250 g ai/ha): 100
phytotoxicity rating ECHCG ([2]; 63 g ai/ha): 10
phytotoxicity rating ECHCG ([2]; 250 g ai/ha): 70
phytotoxicity rating SETVI ([3]; 63 g ai/ha): 30
phytotoxicity rating SETVI ([3]; 250 g ai/ha): 70
phytotoxicity rating IPOHE ([4]; 63 g ai/ha): 0
phytotoxicity rating IPOHE ([4]; 250 g ai/ha): 0
phytotoxicity rating SORHA ([5]; 63 g ai/ha): 0
phytotoxicity rating SORHA ([5]; 250 g ai/ha): 30
phytotoxicity rating CHEAL ([6]; 63 g ai/ha): 95
phytotoxicity rating CHEAL ([6]; 250 g ai/ha): 100
phytotoxicity rating DIGSA ([7]; 63 g ai/ha): 50
phytotoxicity rating DIGSA ([7]; 250 g ai/ha): 80
phytotoxicity rating CASOB ([8]; 63 g ai/ha): 0
phytotoxicity rating CASOB ([8]; 250 g ai/ha): 50
phytotoxicity rating ABUTH ([9]; 63 g ai/ha): 60
phytotoxicity rating ABUTH ([9]; 250 g ai/ha): 90
phytotoxicity rating CORN (crop damage) ([10]; 63 g ai/ha): 0
phytotoxicity rating CORN (crop damage) ([10]; 250 g ai/ha): 0
phytotoxicity rating RICE (crop damage) ([11]; 63 g ai/ha): 0
phytotoxicity rating RICE (crop damage) ([11]; 250 g ai/ha): 30
ECHCG phytotoxicity rating ([12]; 63 g ai/ha): 30
ECHCG phytotoxicity rating ([12]; 250 g ai/ha): 50
SETVI phytotoxicity rating ([13]; 63 g ai/ha): 30
SETVI phytotoxicity rating ([13]; 250 g ai/ha): 50
IPOHE phytotoxicity rating ([14]; 63 g ai/ha): 100
IPOHE phytotoxicity rating ([14]; 250 g ai/ha): 100
SORHA phytotoxicity rating ([15]; 63 g ai/ha): 20
SORHA phytotoxicity rating ([15]; 250 g ai/ha): 40
CHEAL phytotoxicity rating ([16]; 63 g ai/ha): 98
CHEAL phytotoxicity rating ([16]; 250 g ai/ha): 100
DIGSA phytotoxicity rating ([17]; 63 g ai/ha): 20
DIGSA phytotoxicity rating ([17]; 250 g ai/ha): 30
AMARE phytotoxicity rating ([18]; 63 g ai/ha): 100
AMARE phytotoxicity rating ([18]; 250 g ai/ha): 100
CASOB phytotoxicity rating ([19]; 63 g ai/ha): 100
CASOB phytotoxicity rating ([19]; 250 g ai/ha): 100
ABUTH phytotoxicity rating ([20]; 63 g ai/ha): 100
ABUTH phytotoxicity rating ([20]; 250 g ai/ha): 100
CORN phytotoxicity rating (crop damage) ([21]; 63 g ai/ha): 15
CORN phytotoxicity rating (crop damage) ([21]; 250 g ai/ha): 30
RICE phytotoxicity rating (crop damage) ([22]; 63 g ai/ha): 40
RICE phytotoxicity rating (crop damage) ([22]; 250 g ai/ha): 65
